Laboratory results taken from PubChem BioAssay (NCI).
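Step 1: Grow cells in 96-well plates. Step 2: Expose to compound for 48 hours at 5 concentrations. Step 3: Interpolate endpoints linearly; if unreached, use highest concentration. GI50 = concentration required for 50% inhibition of growth. TGI: concentration producing complete growth inhibition.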

What was measured:
Test in all cases: NCI anticancer screen, dose series, 48 h
SNB-75 CNS = test system: SNB-75 CNS
A498 renal = test system: A498 renal
HCC-2998 colon = test system: HCC-2998 colon
CCRF-CEM leukemia = test system: CCRF-CEM leukemia
SW-620 colon = test system: SW-620 colon
HL-60(TB) leukemia = test system: HL-60(TB) leukemia
UO-31 renal = test system: UO-31 renal
RPMI-8226 leukemia = test system: RPMI-8226 leukemia

## Cc1c(C(=O)/C=C/c2ccc([N+](=O)[O-])cc2)[n+](=O)c2ccccc2n1[O-]
SNB-75 CNS
  TGI: > 100 µM
A498 renal
  TGI: > 100 µM
HCC-2998 colon
  TGI: > 100 µM
CCRF-CEM leukemia
  TGI: 99.2 µM
SW-620 colon
  TGI: > 100 µM
HL-60(TB) leukemia
  TGI: 2.89 µM
UO-31 renal
  TGI: > 100 µM
RPMI-8226 leukemia
  TGI: > 100 µM

## CC(=O)[CH-]C(=O)c1ccccc1.CC(=O)[CH-]C(=O)c1ccccc1.CC(=O)[CH-]C(=O)c1ccccc1.[Cl-].[Hf+4]
SNB-75 CNS
  GI50: 22.2 µM
  TGI: 70.4 µM
A498 renal
  GI50: 25.5 µM
  TGI: 75.5 µM
CCRF-CEM leukemia
  GI50: 9.36 µM
  TGI: > 100 µM
SW-620 colon
  GI50: 52.2 µM
  TGI: > 100 µM
HL-60(TB) leukemia
  GI50: 25.8 µM
  TGI: > 100 µM
RPMI-8226 leukemia
  GI50: 34.2 µM
  TGI: > 100 µM

## CC(C)(C)c1cc(Cc2ccc(S(C)(=O)=O)cc2)c(O)c(C(C)(C)C)c1
SNB-75 CNS
  TGI: 28 µM
A498 renal
  TGI: 30.3 µM
HCC-2998 colon
  TGI: 29.8 µM
CCRF-CEM leukemia
  TGI: 30.5 µM
SW-620 colon
  TGI: 31.2 µM
HL-60(TB) leukemia
  TGI: 42 µM
UO-31 renal
  TGI: 29.6 µM
RPMI-8226 leukemia
  TGI: 25.8 µM

## CC(=O)[CH-]C(=O)c1ccccc1.CC(=O)[CH-]C(=O)c1ccccc1.CC[C@H](CCC(C)[C@H]1CCC2[C@@H]3CC=C4C[C@@H]([O-])CC[C@]4(C)C3CC[C@@]21C)C(C)C.CC[C@H](CCC(C)[C@H]1CCC2[C@@H]3CC=C4C[C@@H]([O-])CC[C@]4(C)C3CC[C@@]21C)C(C)C.Cl.[Ti+4] (stereo partly drawn)
SNB-75 CNS
  TGI: > 25 µM
A498 renal
  GI50: > 25 µM
  TGI: > 25 µM
HCC-2998 colon
  TGI: > 25 µM
CCRF-CEM leukemia
  TGI: > 25 µM
SW-620 colon
  TGI: > 25 µM
HL-60(TB) leukemia
  TGI: > 25 µM
UO-31 renal
  TGI: > 25 µM
RPMI-8226 leukemia
  TGI: > 25 µM

## COC1(OC)CCC2(C)OC(c3ccccc3)C1O2 (stereo not drawn)
SNB-75 CNS
  TGI: > 100 µM
HCC-2998 colon
  TGI: > 100 µM
CCRF-CEM leukemia
  TGI: > 100 µM
SW-620 colon
  TGI: > 100 µM
HL-60(TB) leukemia
  TGI: > 100 µM
UO-31 renal
  TGI: > 100 µM
RPMI-8226 leukemia
  TGI: > 100 µM

## CC12CCC(=O)N1[C@@H](c1ccccc1)[C@@H](c1ccccc1)O2 (stereo partly drawn)
SNB-75 CNS
  TGI: > 100 µM
A498 renal
  TGI: > 100 µM
HCC-2998 colon
  TGI: > 100 µM
CCRF-CEM leukemia
  TGI: > 100 µM
SW-620 colon
  TGI: > 100 µM
HL-60(TB) leukemia
  TGI: > 100 µM
UO-31 renal
  TGI: > 100 µM

## [CH3][Ge]([CH3])([CH2]CC#N)[S]c1ccccc1
SNB-75 CNS
  GI50: 23.4 µM
  TGI: 74 µM
HCC-2998 colon
  GI50: 0.0385 µM
  TGI: > 100 µM
CCRF-CEM leukemia
  GI50: 1.38 µM
  TGI: 4.35 µM
SW-620 colon
  GI50: 14.1 µM
  TGI: 29.4 µM
HL-60(TB) leukemia
  GI50: 2.2 µM
  TGI: 11.9 µM
UO-31 renal
  GI50: 10.5 µM
  TGI: 22.3 µM
RPMI-8226 leukemia
  GI50: 16.2 µM
  TGI: 53.2 µM

## NC(N)=NCCCC(Nc1c2ccccc2nc2ccccc12)C(=O)O (stereo not drawn)
SNB-75 CNS
  TGI: > 100 µM
HCC-2998 colon
  TGI: > 100 µM
CCRF-CEM leukemia
  TGI: > 100 µM
SW-620 colon
  TGI: > 100 µM
HL-60(TB) leukemia
  TGI: > 100 µM
RPMI-8226 leukemia
  TGI: > 100 µM

## NNC(=O)N/N=C(/CC1(O)C(=O)Nc2ccc(Br)cc21)c1ccccc1 (stereo not drawn)
SNB-75 CNS
  TGI: > 100 µM
CCRF-CEM leukemia
  TGI: 65.2 µM
SW-620 colon
  TGI: > 100 µM
HL-60(TB) leukemia
  TGI: 51.7 µM
UO-31 renal
  TGI: 49.3 µM
RPMI-8226 leukemia
  TGI: > 100 µM

## C=C1C2CCCC1C1(S(C)(=O)=O)CCCCC21O (stereo not drawn)
SNB-75 CNS
  TGI: > 100 µM
HCC-2998 colon
  TGI: > 100 µM
SW-620 colon
  TGI: > 100 µM
UO-31 renal
  TGI: > 100 µM
RPMI-8226 leukemia
  TGI: > 100 µM

## COc1ccc(C(=O)C(c2ccc(OC)cc2)C2(O)C(=O)Nc3c(Cl)cc(Cl)cc32)cc1 (stereo not drawn)
SNB-75 CNS
  TGI: 58.6 µM
CCRF-CEM leukemia
  TGI: 44.2 µM
SW-620 colon
  TGI: 39.1 µM
HL-60(TB) leukemia
  TGI: 19.7 µM
UO-31 renal
  TGI: 62.2 µM
RPMI-8226 leukemia
  TGI: 33.6 µM

## CC1CN1c1c(C(=O)/C=C/c2ccc(F)cc2)c(-c2ccccc2)nn(C)c1=O (stereo not drawn)
SNB-75 CNS
  TGI: 28.7 µM
HCC-2998 colon
  TGI: 28.7 µM
CCRF-CEM leukemia
  TGI: 48.8 µM
SW-620 colon
  TGI: 32.7 µM
HL-60(TB) leukemia
  TGI: 43 µM
UO-31 renal
  TGI: 25.5 µM
RPMI-8226 leukemia
  TGI: 32.2 µM

## CCCN(CCCC(NC(C)=O)C(=O)NCc1ccccc1)C(=O)N(C)N=O (stereo not drawn)
SNB-75 CNS
  TGI: > 100 µM
A498 renal
  TGI: > 100 µM
HCC-2998 colon
  TGI: > 100 µM
CCRF-CEM leukemia
  TGI: > 100 µM
SW-620 colon
  TGI: > 100 µM
RPMI-8226 leukemia
  TGI: > 100 µM

## Oc1ccc(I)c2cccnc12
A498 renal
  TGI: > 100 µM
CCRF-CEM leukemia
  TGI: 9.68 µM
SW-620 colon
  TGI: > 100 µM
HL-60(TB) leukemia
  TGI: 5.76 µM
UO-31 renal
  TGI: 32.5 µM
RPMI-8226 leukemia
  TGI: 62.9 µM

## O=C1C=C(Nc2cc(Cl)ccc2Cl)c2ccccc2C1=O
SNB-75 CNS
  TGI: 70.3 µM
A498 renal
  TGI: 52 µM
HCC-2998 colon
  TGI: > 100 µM
SW-620 colon
  TGI: > 100 µM
HL-60(TB) leukemia
  TGI: 40.9 µM
UO-31 renal
  TGI: > 100 µM
RPMI-8226 leukemia
  TGI: 68 µM

## CC(=O)c1ccc(NC(=O)C(=O)CC(=O)c2sc(-n3nc(-c4ccccc4)cc3-c3ccccc3)nc2C)cc1
A498 renal
  TGI: > 100 µM
HCC-2998 colon
  TGI: > 100 µM
CCRF-CEM leukemia
  TGI: > 100 µM
SW-620 colon
  TGI: > 100 µM
HL-60(TB) leukemia
  TGI: > 100 µM
UO-31 renal
  TGI: > 100 µM
RPMI-8226 leukemia
  TGI: > 100 µM

## CCOC(=O)C1(C)C2=CC=C(O2)C(C)(C)C2=CC=C(O2)C(C)(C)C2=CC=C(O2)C(C)(C)C2=CC=C1O2
A498 renal
  TGI: > 100 µM
HCC-2998 colon
  TGI: > 100 µM
CCRF-CEM leukemia
  TGI: > 100 µM
SW-620 colon
  TGI: > 100 µM
HL-60(TB) leukemia
  TGI: > 100 µM

## COC(=O)C1=C(C)N(NC(N)=O)C2(N)N(NC(N)=O)C(C)=C(C(=O)OC)C12C#N (stereo not drawn)
A498 renal
  TGI: > 100 µM
HCC-2998 colon
  TGI: > 100 µM
CCRF-CEM leukemia
  TGI: > 100 µM
SW-620 colon
  TGI: > 100 µM
HL-60(TB) leukemia
  TGI: > 100 µM
UO-31 renal
  TGI: > 100 µM
RPMI-8226 leukemia
  TGI: > 100 µM

## O=c1[nH]c(-c2ccccc2)nc2cc([N+](=O)[O-])c(/C(Cl)=C/c3ccccc3)cc12
SNB-75 CNS
  TGI: 53.1 µM
HCC-2998 colon
  TGI: > 100 µM
SW-620 colon
  TGI: > 100 µM
UO-31 renal
  TGI: > 100 µM
RPMI-8226 leukemia
  TGI: 88.7 µM
